Bridge positions count the residues as written; N and C are the ends. Ends that are not written are not given here. Peptide text beside a SMILES is read from it.
What was measured:
[1] = test system: LPS/D-Gal acute liver injury model; test: LPS/D-galactosamine-induced acute liver injury model; settings: LPS/D-Gal challenge; FIG. 1, 2, 4
[2] = design: species or system C57BL/6 mice; settings: mouse, in vivo, iv
Method: To evaluate the pharmacokinetics of iCP-NI in the lungs, 6-8 weeks old C57BL/6 mice were intravenously administered with 100 mg/kg of FITC-conjugated iCP-NI. Subsequently, mice were sacrificed at various time points and lung tissues were obtained for pharmacokinetic analysis. Also, other tissues (brain, heart, liver, spleen, kidney, small/large intestine and pancreas) were collected for distribution of iCP-NI analysis. Representative lung tissue specimens were perfusion-fixed with 4% paraformaldehyde (PFA; BIOSESANG, Cat No. PC2031-100-00) and incubated in 30% sucrose solution overnight at 4° C. Next, specimens were embedded in optimal cutting temperature (OCT) compound (Leica Biosystems, Cat No. 3801480) and cryo-sectioned to a 10 μm thickness onto microscope glass slide. The cryo-sectioned samples were washed thoroughly with PBS and incubated with ammonium chloride (NH4Cl, Sigma-Aldrich, Cat No. A9434) solution for 20 minutes at room temperature (RT). The samples were mounted with DAPI-containing mounting solution (Invitrogen, Cat No. 00-4959-52) and visualized by fluorescence microscopy using a confocal laser scanning microscope system (Leica SP8) and the images were processed with Leica LAS X software).

Row | time high levels remained in lung tissue [2] [h] | Compound | effect on survival, comparison in words [1]
1 |  | 1NLS: linear nuclear localization sequence from NF-κB1 (p50); Table 1 prints VQRKRQKLMP (SEQ ID NO. 8) (NLS) [Structure 1NLS] | not enhanced
2 | ≥ 8 | CC[C@H](C)[C@H](N)C(=O)N[C@@H](C)C(=O)N[C@@H](C)C(=O)N[C@H](C(=O)N[C@@H](CC(C)C)C(=O)N[C@@H](C)C(=O)N[C@@H](C)C(=O)N1CCC[C@H]1C(=O)N[C@@H](C)C(=O)N[C@@H](CC(C)C)C(=O)N[C@H](C(=O)N1CCC[C@H]1C(=O)N[C@H]1CSSC[C@@H](C(=O)O)NC(=O)[C@@H]2CCCN2C(=O)[C@H](CCSC)NC(=O)[C@H](CC(C)C)NC(=O)[C@H](CCCCN)NC(=O)[C@H](CCC(N)=O)NC(=O)[C@H](CCCNC(=N)N)NC(=O)[C@H](CCCCN)NC(=O)[C@H](CCCNC(=N)N)NC(=O)[C@H](CCC(N)=O)NC(=O)[C@H](C(C)C)NC1=O)C(C)C)C(C)C [iCP-NI] (H-IAAVLAAPALVPCVQRKRQKLMPC-OH; disulfide 13-24; N-terminus and C-terminus assumed) | 
3 |  | cNLS: circular NLS CVQRKRQKLMPC (SEQ ID NO. 1), no aMTD (also: cyclised, mode not given here) | not enhanced
